# Assays:
# Experiment in all cases: biochemical
# Details in all cases: read-out: % Inhibition (at 10mM)
# PDK1(direct) = molecular target: T1, PDK1(direct) (Homo sapiens, UniProt O15530)
# T1 construct: gene PDPK1; direct
# PRK1 = molecular target: T2, PRK1 (Homo sapiens, UniProt Q16512)
# T2 construct: gene PKN1
# YSK4 = molecular target: T3, YSK4 (Homo sapiens, UniProt Q56UN5)
# T3 construct: gene MAP3K19
# TSSK1 = molecular target: T4, TSSK1 (Homo sapiens, UniProt Q9BXA7)
# T4 construct: gene TSSK1B
# PIM1 = PIM1 (Homo sapiens, UniProt P11309)
# PKC_gamma = molecular target: T5, PKC_gamma (Homo sapiens, UniProt P05129)
# T5 construct: gene PRKCG
# EphA1 = EphA1 (Homo sapiens, UniProt P21709)
# PAK3 = PAK3 (Homo sapiens, UniProt O75914)
# CK1_gamma3 = molecular target: T6, CK1_gamma3 (Homo sapiens, UniProt Q9Y6M4)
# T6 construct: gene CSNK1G3
# IRAK4 = IRAK4 (Homo sapiens, UniProt Q9NWZ3)
# Aurora_C = molecular target: T7, Aurora_C (Homo sapiens, UniProt Q9UQB9)
# T7 construct: gene AURKC
# Srm = molecular target: T8, Srm (Homo sapiens, UniProt Q9H3Y6)
# T8 construct: gene SRMS
# PDGFR_beta = molecular target: T9, PDGFR_beta (Homo sapiens, UniProt P09619)
# T9 construct: gene PDGFRB
# T9 sequence (P09619 whole entry): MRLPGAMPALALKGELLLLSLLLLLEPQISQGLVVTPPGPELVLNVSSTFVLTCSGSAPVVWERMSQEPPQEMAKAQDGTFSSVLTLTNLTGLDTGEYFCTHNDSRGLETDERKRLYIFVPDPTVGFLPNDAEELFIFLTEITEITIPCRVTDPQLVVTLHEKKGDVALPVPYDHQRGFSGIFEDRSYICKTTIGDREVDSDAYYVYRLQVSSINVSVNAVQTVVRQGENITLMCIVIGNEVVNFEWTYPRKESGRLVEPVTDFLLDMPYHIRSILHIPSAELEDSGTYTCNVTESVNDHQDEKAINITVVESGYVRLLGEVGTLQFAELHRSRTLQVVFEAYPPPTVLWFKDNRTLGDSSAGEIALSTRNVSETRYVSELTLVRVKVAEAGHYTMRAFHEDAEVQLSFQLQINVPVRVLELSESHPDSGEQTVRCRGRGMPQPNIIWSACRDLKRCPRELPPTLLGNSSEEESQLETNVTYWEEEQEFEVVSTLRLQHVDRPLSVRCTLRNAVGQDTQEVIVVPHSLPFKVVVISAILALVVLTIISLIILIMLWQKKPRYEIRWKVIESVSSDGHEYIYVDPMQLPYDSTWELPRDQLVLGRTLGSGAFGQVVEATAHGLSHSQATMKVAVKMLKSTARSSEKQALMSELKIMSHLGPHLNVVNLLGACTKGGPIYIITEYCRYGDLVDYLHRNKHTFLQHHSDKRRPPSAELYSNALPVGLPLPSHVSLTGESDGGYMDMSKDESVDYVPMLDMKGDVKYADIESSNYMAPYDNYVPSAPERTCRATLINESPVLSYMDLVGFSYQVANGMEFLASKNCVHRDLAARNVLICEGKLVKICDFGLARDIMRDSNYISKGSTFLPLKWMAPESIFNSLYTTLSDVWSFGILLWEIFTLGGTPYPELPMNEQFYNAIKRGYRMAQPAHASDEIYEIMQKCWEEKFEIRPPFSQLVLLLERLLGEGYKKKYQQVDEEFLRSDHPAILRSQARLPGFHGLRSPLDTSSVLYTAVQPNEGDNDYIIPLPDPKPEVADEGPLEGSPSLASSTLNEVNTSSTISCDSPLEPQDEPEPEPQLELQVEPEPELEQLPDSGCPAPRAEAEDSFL
# EphB2 = EphB2 (Homo sapiens, UniProt P29323)
# CK2_alpha1 = molecular target: T10, CK2_alpha1 (Homo sapiens, UniProt P68400)
# T10 construct: gene CSNK2A1
# MST4 = molecular target: T11, MST4 (Homo sapiens, UniProt Q9P289)
# T11 construct: gene STK26
# YSK1 = molecular target: T12, YSK1 (Homo sapiens, UniProt O00506)
# T12 construct: gene STK25
# SGK3 = SGK3 (Homo sapiens, UniProt Q96BR1)
# Tie2 = molecular target: T13, Tie2 (Homo sapiens, UniProt Q02763)
# T13 construct: gene TEK
# T13 sequence (Q02763 whole entry): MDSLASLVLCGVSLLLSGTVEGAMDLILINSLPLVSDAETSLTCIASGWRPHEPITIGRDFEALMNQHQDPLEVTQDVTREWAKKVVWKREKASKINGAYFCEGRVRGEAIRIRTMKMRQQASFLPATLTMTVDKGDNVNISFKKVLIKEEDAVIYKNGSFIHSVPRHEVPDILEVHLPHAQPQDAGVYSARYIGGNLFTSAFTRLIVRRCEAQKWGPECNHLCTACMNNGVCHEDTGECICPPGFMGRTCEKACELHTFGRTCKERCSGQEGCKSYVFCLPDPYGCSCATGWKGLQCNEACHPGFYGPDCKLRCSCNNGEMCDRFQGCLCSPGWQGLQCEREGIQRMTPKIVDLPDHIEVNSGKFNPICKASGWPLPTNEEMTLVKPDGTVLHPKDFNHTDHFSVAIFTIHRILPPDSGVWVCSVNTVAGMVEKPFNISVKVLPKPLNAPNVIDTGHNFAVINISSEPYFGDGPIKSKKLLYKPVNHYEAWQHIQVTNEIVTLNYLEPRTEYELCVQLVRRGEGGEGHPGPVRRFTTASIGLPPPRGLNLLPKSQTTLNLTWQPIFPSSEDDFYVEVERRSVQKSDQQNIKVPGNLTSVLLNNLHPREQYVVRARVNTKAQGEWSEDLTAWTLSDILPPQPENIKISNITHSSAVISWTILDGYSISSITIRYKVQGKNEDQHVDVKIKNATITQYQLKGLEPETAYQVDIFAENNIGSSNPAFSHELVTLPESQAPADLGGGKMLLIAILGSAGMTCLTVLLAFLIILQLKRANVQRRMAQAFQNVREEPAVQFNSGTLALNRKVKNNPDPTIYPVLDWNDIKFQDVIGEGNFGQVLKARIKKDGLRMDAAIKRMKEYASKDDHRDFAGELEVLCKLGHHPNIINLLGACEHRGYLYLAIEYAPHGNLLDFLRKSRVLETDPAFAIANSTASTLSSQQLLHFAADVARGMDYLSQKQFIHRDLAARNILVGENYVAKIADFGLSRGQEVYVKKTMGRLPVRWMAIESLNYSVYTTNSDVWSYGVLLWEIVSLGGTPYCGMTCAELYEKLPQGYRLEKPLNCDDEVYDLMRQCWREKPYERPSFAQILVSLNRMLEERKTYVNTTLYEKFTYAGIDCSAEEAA
# Mer = molecular target: T14, Mer (Homo sapiens, UniProt Q12866)
# T14 construct: gene MERTK
# NEK7 = NEK7 (Homo sapiens, UniProt Q8TDX7)
# NEK7, sequence (Q8TDX7 whole entry): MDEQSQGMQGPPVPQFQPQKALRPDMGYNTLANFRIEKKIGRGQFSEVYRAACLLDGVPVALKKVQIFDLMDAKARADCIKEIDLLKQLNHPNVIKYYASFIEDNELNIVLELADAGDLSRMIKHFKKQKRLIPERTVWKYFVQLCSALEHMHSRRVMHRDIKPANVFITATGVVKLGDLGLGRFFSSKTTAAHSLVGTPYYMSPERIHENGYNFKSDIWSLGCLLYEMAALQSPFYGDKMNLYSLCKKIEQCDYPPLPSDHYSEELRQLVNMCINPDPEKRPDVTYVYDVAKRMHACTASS
# Blk = Blk (Homo sapiens, UniProt P51451)
# p38_beta = molecular target: T15, p38_beta (Homo sapiens, UniProt Q15759)
# T15 construct: gene MAPK11
# ErbB4 = ErbB4 (Homo sapiens, UniProt Q15303)
# EphA4 = EphA4 (Homo sapiens, UniProt P54764)
# EphA4, sequence (P54764 whole entry): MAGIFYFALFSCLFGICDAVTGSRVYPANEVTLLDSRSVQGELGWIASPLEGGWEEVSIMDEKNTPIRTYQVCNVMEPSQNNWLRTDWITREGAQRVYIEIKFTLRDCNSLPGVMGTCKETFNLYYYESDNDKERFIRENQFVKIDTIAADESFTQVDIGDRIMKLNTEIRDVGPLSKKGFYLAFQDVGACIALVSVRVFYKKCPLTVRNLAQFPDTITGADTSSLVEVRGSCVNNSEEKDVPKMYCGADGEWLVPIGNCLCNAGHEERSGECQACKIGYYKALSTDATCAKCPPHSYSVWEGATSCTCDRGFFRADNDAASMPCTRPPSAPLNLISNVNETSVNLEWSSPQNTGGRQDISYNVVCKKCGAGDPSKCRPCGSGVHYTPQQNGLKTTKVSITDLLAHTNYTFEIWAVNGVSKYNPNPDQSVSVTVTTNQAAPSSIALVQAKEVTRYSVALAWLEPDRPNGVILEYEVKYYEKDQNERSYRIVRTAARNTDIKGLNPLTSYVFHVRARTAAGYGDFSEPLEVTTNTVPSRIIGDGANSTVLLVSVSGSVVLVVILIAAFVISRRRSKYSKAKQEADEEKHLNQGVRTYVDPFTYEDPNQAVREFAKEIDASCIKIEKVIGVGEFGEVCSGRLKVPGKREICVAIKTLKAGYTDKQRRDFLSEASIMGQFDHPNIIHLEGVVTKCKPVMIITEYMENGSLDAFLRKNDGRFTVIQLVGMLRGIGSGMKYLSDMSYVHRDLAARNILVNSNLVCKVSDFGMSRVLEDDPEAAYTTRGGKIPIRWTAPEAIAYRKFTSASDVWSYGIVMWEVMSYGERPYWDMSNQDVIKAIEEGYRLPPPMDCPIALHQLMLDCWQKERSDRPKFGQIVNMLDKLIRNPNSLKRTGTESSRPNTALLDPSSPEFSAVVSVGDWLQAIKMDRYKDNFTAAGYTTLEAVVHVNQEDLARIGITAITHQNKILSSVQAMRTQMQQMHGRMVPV
# EphA2 = EphA2 (Homo sapiens, UniProt P29317)
# CK1_gamma2 = molecular target: T16, CK1_gamma2 (Homo sapiens, UniProt P78368)
# T16 construct: gene CSNK1G2
# GRK3 = GRK3 (Homo sapiens, UniProt P35626)
# PKC_beta1 = molecular target: T17, PKC_beta1 (Homo sapiens, UniProt P05771)
# T17 construct: gene PRKCB; isoform beta1
# TYK2 = TYK2 (Homo sapiens, UniProt P29597)
# CDK5/p25 = molecular target: T18, CDK5/p25 (Homo sapiens, UniProt Q00535)
# T18 construct: p25
# BrSK1 = BrSK1 (Homo sapiens, UniProt Q8TDC3)
# RSK4 = molecular target: T19, RSK4 (Homo sapiens, UniProt Q9UK32)
# T19 construct: gene RPS6KA6
# AKT1 = AKT1 (Homo sapiens, UniProt P31749)
# CK1_gamma1 = molecular target: T20, CK1_gamma1 (Homo sapiens, UniProt Q9HCP0)
# T20 construct: gene CSNK1G1
# p70S6Kb = molecular target: T21, p70S6Kb (Homo sapiens, UniProt Q9UBS0)
# T21 construct: gene RPS6KB2
# LynB = molecular target: T22, LynB (Homo sapiens, UniProt P07948)
# T22 construct: gene LYN; isoform B
# T1 sequence (O15530 whole entry): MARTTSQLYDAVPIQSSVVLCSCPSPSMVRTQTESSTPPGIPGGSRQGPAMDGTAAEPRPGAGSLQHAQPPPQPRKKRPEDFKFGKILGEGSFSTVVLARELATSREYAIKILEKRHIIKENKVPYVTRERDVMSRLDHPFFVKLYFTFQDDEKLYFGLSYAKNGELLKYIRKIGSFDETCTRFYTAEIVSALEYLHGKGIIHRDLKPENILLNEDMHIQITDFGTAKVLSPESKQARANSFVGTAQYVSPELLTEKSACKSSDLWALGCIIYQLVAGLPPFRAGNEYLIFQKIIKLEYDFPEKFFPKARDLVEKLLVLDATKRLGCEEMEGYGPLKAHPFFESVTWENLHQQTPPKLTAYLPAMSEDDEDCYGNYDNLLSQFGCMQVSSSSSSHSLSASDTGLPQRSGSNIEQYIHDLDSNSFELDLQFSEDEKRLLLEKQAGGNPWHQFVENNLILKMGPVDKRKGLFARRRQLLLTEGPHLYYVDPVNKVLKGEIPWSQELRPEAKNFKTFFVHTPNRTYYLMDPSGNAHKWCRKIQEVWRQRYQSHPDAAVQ
compound,measurement,setting,value
CC(C)(O)CC(=O)NCCn1ccc2ncnc(Nc3ccc(Oc4cccc(C(F)(F)F)c4)c(Cl)c3)c21 [TAK-285],inhibition,PDK1(direct),9%
same,inhibition,PRK1,-7%
same,inhibition,YSK4,1%
same,inhibition,TSSK1,-6.5%
same,inhibition,PIM1,5.5%
same,inhibition,PKC_gamma,8%
same,inhibition,EphA1,7%
same,inhibition,PAK3,12%
same,inhibition,CK1_gamma3,2.5%
same,inhibition,IRAK4,6%
same,inhibition,Aurora_C,22.5%
same,inhibition,Srm,13.5%
same,inhibition,PDGFR_beta,-4%
same,inhibition,EphB2,12%
same,inhibition,CK2_alpha1,-2.5%
same,inhibition,MST4,-2.5%
same,inhibition,YSK1,5.5%
same,inhibition,SGK3,2%
same,inhibition,Tie2,-6%
same,inhibition,Mer,49.5%
same,inhibition,NEK7,7%
same,inhibition,Blk,25%
same,inhibition,p38_beta,1%
same,inhibition,ErbB4,98.5%
same,inhibition,EphA4,9%
same,inhibition,EphA2,7.5%
same,inhibition,CK1_gamma2,-5%
same,inhibition,GRK3,-5.5%
same,inhibition,PKC_beta1,5%
same,inhibition,TYK2,4.5%
same,inhibition,CDK5/p25,8%
same,inhibition,BrSK1,5%
same,inhibition,RSK4,2.5%
same,inhibition,AKT1,1.5%
same,inhibition,CK1_gamma1,2.5%
same,inhibition,p70S6Kb,2.5%
same,inhibition,LynB,37%

# — publication PMC6978363, “Chaperone mediated detection of small molecule target binding in cells” (Nature Communications, 2020)
